Results reported in US20250092039A1, “GLUTARIMIDE-CONTAINING PAN-KRAS-MUTANT DEGRADER COMPOUNDS AND USES THEREOF” (Tiger Biotherapeutics Inc., priority 2022, published 2025).
pIC50: −log10 of the molar value.

Columns and labels:
[1] = target: KRAS-G12V/RAF1 (Homo sapiens (Human), UniProt P01116, G12V); test: KRAS/RAF1 binding inhibition assay (AlphaScreen)
Outline: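 IC50 comes from variable-slope nonlinear fits of % inhibition (relative to DMSO) against inhibitor concentration. The AlphaScreen signal tracks the interaction of GppNHp-bound KRAS G12V with the RAF1 RBD after 60 min at 4° C with compound in 2% DMSO final.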

[2] = system: SW620 cells; test: 3D cell growth inhibition of SW620 cells carrying endogenous KRAS G12V mutation (CellTiter-Glo 3D, GI50); type: cell-based; conditions: Homo sapiens, SW-620, 144 h; SW620 cells, 6 days; read-out: SW620 3D cell growth GI50
Outline: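 […], compound exposure lasted 6 days at 37° C, added the day after plating from DMSO stocks over a concentration range. Cells: SW620, KRAS G12V, 3D culture.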

[3] = target: KRAS G12V (Homo sapiens (Human), UniProt P01116, G12V); test: KRAS G12V degradation in SW620 cells (Western blot, DC50); type: cell-based; conditions: 24 hours
Sequence of KRAS G12V (P01116-2 other isoform, or with tags, fused parts or gaps G12V): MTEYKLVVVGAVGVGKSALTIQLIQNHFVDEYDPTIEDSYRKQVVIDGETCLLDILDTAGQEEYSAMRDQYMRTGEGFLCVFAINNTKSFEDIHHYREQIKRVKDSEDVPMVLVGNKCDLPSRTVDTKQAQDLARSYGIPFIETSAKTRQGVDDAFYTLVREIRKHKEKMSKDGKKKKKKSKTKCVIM
Outline: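 KRAS levels were quantified by fluorescent Western blot as percent of the DMSO control after 24 h of compound exposure at 37° C in homozygous KRAS G12V SW620 cells. A four-parameter variable-slope fit of the dose-response gave the half-maximal degradation concentration.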

Sequence of KRAS-G12V/RAF1 (P01116-2 other isoform, or with tags, fused parts or gaps G12V): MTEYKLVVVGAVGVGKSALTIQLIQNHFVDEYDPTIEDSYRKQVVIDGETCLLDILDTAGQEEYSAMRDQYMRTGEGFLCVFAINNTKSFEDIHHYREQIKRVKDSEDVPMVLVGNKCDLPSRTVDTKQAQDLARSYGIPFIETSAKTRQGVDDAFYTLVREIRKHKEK

Compound | pIC50 [1] | GI50 [2] | DC50 [3]
CCc1c(F)ccc2cc(O)cc(-c3ncc4c(N5CCC[C@@](C)(O)C5)nc(OCC5(CN6CCC(N7CCC8(CC7)CN(c7ccc9c(c7)CN(C7CCC(=O)NC7=O)C9=O)C8)CC6)CC5)nc4c3F)c12 (stereo partly drawn) [Compound 151, 3-(5-(7-(1-((1-(((7-(8-ethyl-7-fluoro-3-hydroxynaphthalen-1-yl)-8-fluoro-4-((R)-3-hydroxy-3-methylpiperidin-1-yl)pyrido[4,3-d]pyrimidin-2-yl)oxy)methyl)cyclopropyl)methyl)piperidin-4-yl)-2,7-diazaspiro[3.5]nonan-2-yl)-1-oxoisoindolin-2-yl)piperidine-2,6-dione] | 6.70 to 7.70 | < 0.01 µM | < 0.001 µM
CCc1c(F)ccc2cc(O)cc(-c3ncc4c(N5CCC[C@@](C)(O)C5)nc(OCC5(CN6CC(N7CCC8(CC7)CN(c7ccc9c(c7)CN(C7CCC(=O)NC7=O)C9=O)C8)C6)CC5)nc4c3F)c12 (stereo partly drawn) [Compound 152, 3-(5-(7-(1-((1-(((7-(8-ethyl-7-fluoro-3-hydroxynaphthalen-1-yl)-8-fluoro-4-((R)-3-hydroxy-3-methylpiperidin-1-yl)pyrido[4,3-d]pyrimidin-2-yl)oxy)methyl)cyclopropyl)methyl)azetidin-3-yl)-2,7-diazaspiro[3.5]nonan-2-yl)-1-oxoisoindolin-2-yl)piperidine-2,6-dione] | 6.70 to 7.70 | < 0.01 µM | < 0.001 µM
CCc1c(F)ccc2cc(O)cc(-c3ncc4c(N5CCC[C@@](C)(O)C5)nc(OCC5(CN6CC(N7CCC8(CCN(c9ccc%10c(c9)CN(C9CCC(=O)NC9=O)C%10=O)CC8)CC7)C6)CC5)nc4c3F)c12 (stereo partly drawn) [Compound 153, 3-(5-(9-(1-((1-(((7-(8-ethyl-7-fluoro-3-hydroxynaphthalen-1-yl)-8-fluoro-4-((R)-3-hydroxy-3-methylpiperidin-1-yl)pyrido[4,3-d]pyrimidin-2-yl)oxy)methyl)cyclopropyl)methyl)azetidin-3-yl)-3,9-diazaspiro[5.5]undecan-3-yl)-1-oxoisoindolin-2-yl)piperidine-2,6-dione] | 6.70 to 7.70 | < 0.01 µM | < 0.001 µM
CCc1c(F)ccc2cc(O)cc(-c3ncc4c(N5CCC[C@@](C)(O)C5)nc(OCC5(CN6CCN(C7CC8(C7)CN(c7ccc9c(c7)CN(C7CCC(=O)NC7=O)C9=O)C8)CC6)CC5)nc4c3F)c12 (stereo partly drawn) [Compound 161, 3-(5-(6-(4-((1-(((7-(8-ethyl-7-fluoro-3-hydroxynaphthalen-1-yl)-8-fluoro-4-((R)-3-hydroxy-3-methylpiperidin-1-yl)pyrido[4,3-d]pyrimidin-2-yl)oxy)methyl)cyclopropyl)methyl)piperazin-1-yl)-2-azaspiro[3.3]heptan-2-yl)-1-oxoisoindolin-2-yl)piperidine-2,6-dione] | 6.70 to 7.70 | < 0.01 µM | < 0.001 µM
CCc1c(F)ccc2cc(O)cc(-c3ncc4c(N5CCC[C@@](C)(O)C5)nc(OCC5(CN6CCN(C7CC8(CCN(c9ccc%10c(c9)CN(C9CCC(=O)NC9=O)C%10=O)CC8)C7)CC6)CC5)nc4c3F)c12 (stereo partly drawn) [Compound 162, 3-[5-[2-[4-[[1-[[7-(8-ethyl-7-fluoro-3-hydroxy-1-naphthyl)-8-fluoro-4-[(3R)-3-hydroxy-3-methyl-1-piperidyl]pyrido[4,3-d]pyrimidin-2-yl]oxymethyl]cyclopropyl]methyl]piperazin-1-yl]-7-azaspiro[3.5]nonan-7-yl]-1-oxo-isoindolin-2-yl]piperidine-2,6-dione] | 6.70 to 7.70 | < 0.01 µM | < 0.001 µM
CCc1c(F)ccc2cc(O)cc(-c3ncc4c(N5CCC[C@@](C)(O)C5)nc(OCC5(CN6CCC7(CC6)CCN(C6CN(c8ccc9c(c8)CN(C8CCC(=O)NC8=O)C9=O)C6)CC7)CC5)nc4c3F)c12 (stereo partly drawn) [Compound 164, 3-(5-(3-(9-((1-(((7-(8-ethyl-7-fluoro-3-hydroxynaphthalen-1-yl)-8-fluoro-4-((R)-3-hydroxy-3-methylpiperidin-1-yl)pyrido[4,3-d]pyrimidin-2-yl)oxy)methyl)cyclopropyl)methyl)-3,9-diazaspiro[5.5]undecan-3-yl)azetidin-1-yl)-1-oxoisoindolin-2-yl)piperidine-2,6-dione] | 6.70 to 7.70 | < 0.01 µM | 0.001 to 0.01 µM

More lines, now with the values ahead:

pIC50 [1] | GI50 [2] | DC50 [3] | Compound
> 7.70 | < 0.01 µM | < 0.001 µM | CCc1c(F)ccc2cc(O)cc(-c3ncc4c(N5CCC[C@@](C)(O)C5)nc(OCC5(CN6CCC(N7CCC(N8CCN(c9ccc%10c(c9)CN([C@H]9CCC(=O)NC9=O)C%10=O)CC8)CC7)CC6)CC5)nc4c3F)c12 [Compound 147, (S)-3-(5-(4-(1′-((1-(((7-(8-ethyl-7-fluoro-3-hydroxynaphthalen-1-yl)-8-fluoro-4-((R)-3-hydroxy-3-methylpiperidin-1-yl)pyrido[4,3-d]pyrimidin-2-yl)oxy)methyl)cyclopropyl)methyl)-[1,4′-bipiperidin]-4-yl)piperazin-1-yl)-1-oxoisoindolin-2-yl)piperidine-2,6-dione]
> 7.70 | < 0.01 µM | < 0.001 µM | CCc1c(F)ccc2cc(O)cc(-c3ncc4c(N5CCC[C@@](C)(O)C5)nc(OCC5(CN6CCC(CN7CCC(N8CCN(c9ccc%10c(c9)CN([C@H]9CCC(=O)NC9=O)C%10=O)CC8)CC7)CC6)CC5)nc4c3F)c12 [Compound 148, (S)-3-(5-(4-(1-((1-((1-(((7-(8-ethyl-7-fluoro-3-hydroxynaphthalen-1-yl)-8-fluoro-4-((R)-3-hydroxy-3-methylpiperidin-1-yl)pyrido[4,3-d]pyrimidin-2-yl)oxy)methyl)cyclopropyl)methyl)piperidin-4-yl)methyl)piperidin-4-yl)piperazin-1-yl)-1-oxoisoindolin-2-yl)piperidine-2,6-dione]
6.70 to 7.70 | 0.01 to 0.1 µM | > 0.1 µM | CCc1c(F)ccc2cc(O)cc(-c3ncc4c(N5CCC[C@@](C)(O)C5)nc(OCC5(CN6CC(CN7CCC(N8CCN(c9ccc%10c(c9)CN([C@H]9CCC(=O)NC9=O)C%10=O)CC8)CC7)C6)CC5)nc4c3F)c12 [Compound 149, (S)-3-(5-(4-(1-((1-((1-(((7-(8-ethyl-7-fluoro-3-hydroxynaphthalen-1-yl)-8-fluoro-4-((R)-3-hydroxy-3-methylpiperidin-1-yl)pyrido[4,3-d]pyrimidin-2-yl)oxy)methyl)cyclopropyl)methyl)azetidin-3-yl)methyl)piperidin-4-yl)piperazin-1-yl)-1-oxoisoindolin-2-yl)piperidine-2,6-dione]
6.70 to 7.70 | < 0.01 µM | < 0.001 µM | CCc1c(F)ccc2cc(O)cc(-c3ncc4c(N5CCC[C@@](C)(O)C5)nc(OCC5(CN6CCC7(CC6)CC(C)(CN6CCN(c8ccc9c(c8)CN([C@H]8CCC(=O)NC8=O)C9=O)CC6)C7)CC5)nc4c3F)c12 [Compound 150, (3S)-3-[5-[4-[[7-[[1-[[7-(8-ethyl-7-fluoro-3-hydroxy-1-naphthyl)-8-fluoro-4-[(3R)-3-hydroxy-3-methyl-1-piperidyl]pyrido[4,3-d]pyrimidin-2-yl]oxymethyl]cyclopropyl]methyl]-2-methyl-7-azaspiro[3.5]nonan-2-yl]methyl]piperazin-1-yl]-1-oxo-isoindolin-2-yl]piperidine-2,6-dione]
> 7.70 | < 0.01 µM | < 0.001 µM | CCc1c(F)ccc2cc(O)cc(-c3ncc4c(N5CCC[C@@](C)(O)C5)nc(OCC5(CN6CCC(N7CC8(CN(c9ccc%10c(c9)CN(C9CCC(=O)NC9=O)C%10=O)C8)C7)CC6)CC5)nc4c3F)c12 (stereo partly drawn) [Compound 154, 3-(5-(6-(1-((1-(((7-(8-ethyl-7-fluoro-3-hydroxynaphthalen-1-yl)-8-fluoro-4-((R)-3-hydroxy-3-methylpiperidin-1-yl)pyrido[4,3-d]pyrimidin-2-yl)oxy)methyl)cyclopropyl)methyl)piperidin-4-yl)-2,6-diazaspiro[3.3]heptan-2-yl)-1-oxoisoindolin-2-yl)piperidine-2,6-dione]
> 7.70 | < 0.01 µM | < 0.001 µM | CCc1c(F)ccc2cc(O)cc(-c3ncc4c(N5CCC[C@@](C)(O)C5)nc(OCC5(CN6CCC7(CC6)CN(C6CCN(c8ccc9c(c8)CN(C8CCC(=O)NC8=O)C9=O)CC6)C7)CC5)nc4c3F)c12 (stereo partly drawn) [Compound 155, 3-(5-(4-(7-((1-(((7-(8-ethyl-7-fluoro-3-hydroxynaphthalen-1-yl)-8-fluoro-4-((R)-3-hydroxy-3-methylpiperidin-1-yl)pyrido[4,3-d]pyrimidin-2-yl)oxy)methyl)cyclopropyl)methyl)-2,7-diazaspiro[3.5]nonan-2-yl)piperidin-1-yl)-1-oxoisoindolin-2-yl)piperidine-2,6-dione]
> 7.70 | < 0.01 µM | < 0.001 µM | CCc1c(F)ccc2cc(O)cc(-c3ncc4c(N5CCC[C@@](C)(O)C5)nc(OCC5(CN6CCC7(CC6)CN(C6CN(c8ccc9c(c8)CN(C8CCC(=O)NC8=O)C9=O)C6)C7)CC5)nc4c3F)c12 (stereo partly drawn) [Compound 163, 3-[5-[3-[7-[[1-[[7-(8-ethyl-7-fluoro-3-hydroxy-1-naphthyl)-8-fluoro-4-[(3R)-3-hydroxy-3-methyl-1-piperidyl]pyrido[4,3-d]pyrimidin-2-yl]oxymethyl]cyclopropyl]methyl]-2,7-diazaspiro[3.5]nonan-2-yl]azetidin-1-yl]-1-oxo-isoindolin-2-yl]piperidine-2,6-dione]
